For the experiment, the target named is c-KIT (Homo sapiens, UniProt P10721). In words: c-KIT ADP-Glo biochemical assay. Conditions: class ranges. Here is the method: The inhibitory activity against c-KIT was measured using ADP-Glo assay. The percent (%) inhibition at each concentration of compound is calculated based on and relative to the luminescence signal in the Max and Min control wells contained within each assay plate. The Max control wells contain enzyme and substrate as 0% inhibition, and the Min control wells only contain substrate without enzyme as 100% inhibition. The concentrations and % inhibition values for tested compounds are plotted and the concentration of compound required for 50% inhibition (IC50) is determined with a four-parameter logistic dose response equation. The ability of the compounds in Table 1 to inhibit c-KIT was determined.
On the technique in general: ADP-Glo turns the ADP formed in a reaction into a luminescent signal.

Bounds are passed on as bounds.

Sequence of c-KIT (P10721 26-976): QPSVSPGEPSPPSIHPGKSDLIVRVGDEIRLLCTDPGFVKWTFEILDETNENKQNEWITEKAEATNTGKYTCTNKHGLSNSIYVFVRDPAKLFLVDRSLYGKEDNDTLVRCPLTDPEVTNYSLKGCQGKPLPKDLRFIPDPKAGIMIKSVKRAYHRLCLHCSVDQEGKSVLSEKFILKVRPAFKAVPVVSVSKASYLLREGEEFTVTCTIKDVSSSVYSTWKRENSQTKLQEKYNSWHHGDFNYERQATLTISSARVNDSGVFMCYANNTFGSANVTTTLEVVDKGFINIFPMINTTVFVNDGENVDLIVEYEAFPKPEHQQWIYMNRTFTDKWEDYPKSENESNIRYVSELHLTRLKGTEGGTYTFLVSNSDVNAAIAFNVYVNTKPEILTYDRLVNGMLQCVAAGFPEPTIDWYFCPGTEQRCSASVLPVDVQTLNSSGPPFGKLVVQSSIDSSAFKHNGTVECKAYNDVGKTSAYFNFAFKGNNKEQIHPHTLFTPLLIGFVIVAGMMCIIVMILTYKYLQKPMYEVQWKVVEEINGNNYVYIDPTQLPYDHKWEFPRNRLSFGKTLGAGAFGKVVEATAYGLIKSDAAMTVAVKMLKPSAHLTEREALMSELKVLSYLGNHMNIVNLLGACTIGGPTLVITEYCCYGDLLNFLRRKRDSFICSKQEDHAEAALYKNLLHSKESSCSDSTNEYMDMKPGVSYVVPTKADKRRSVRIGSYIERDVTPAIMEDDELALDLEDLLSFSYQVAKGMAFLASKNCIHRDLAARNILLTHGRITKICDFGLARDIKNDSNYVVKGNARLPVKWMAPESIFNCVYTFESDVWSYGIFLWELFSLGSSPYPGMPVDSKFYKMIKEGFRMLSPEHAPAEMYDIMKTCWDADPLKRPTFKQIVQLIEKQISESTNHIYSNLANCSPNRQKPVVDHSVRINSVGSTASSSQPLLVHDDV

Take `Cc1c(F)cc(-c2noc(C3CC(F)(F)C3)n2)cc1NC(=O)c1cnc2ccc(N3CCNCC3)cn12` [Compound C025, N-(5-(5-(3,3-difluorocyclobutyl)-1,2,4-oxadiazol-3-yl)-3-fluoro-2-methylphenyl)-6-(piperazin-1-yl)imidazo[1,2-a]pyridine-3-carboxamide]: the IC50 lay within 100 to 1000 nM.
In turn, `COC(=O)N1CC(c2nc(-c3cc(F)c(C)c(NC(=O)c4cnc5ccc(OC)cn45)c3)no2)C1` [Compound C027, methyl 3-(3-(3-fluoro-5-(6-methoxyimidazo[1,2-a]pyridine-3-carboxamido)-4-methylphenyl)-1,2,4-oxadiazol-5-yl)azetidine-1-carboxylate] came in with an IC50 of 100 to 1000 nM.
Compound `COC(=O)N1CC(c2nc(-c3cc(F)c(C)c(NC(=O)c4cnc5ccc(N6CCN(C)CC6)cn45)c3)no2)C1` [Compound C028, methyl 3-(3-(3-fluoro-4-methyl-5-(6-(4-methylpiperazin-1-yl)imidazo[1,2-a]pyridine-3-carboxamido)phenyl)-1,2,4-oxadiazol-5-yl)azetidine-1-carboxylate] had an IC50 of 100 to 1000 nM.
Then `COC(=O)N1CC(c2nc(-c3cc(F)c(C)c(NC(=O)c4cnc5cc(OC)ccn45)c3)no2)C1` [Compound C029, methyl 3-(3-(3-fluoro-5-(7-methoxyimidazo[1,2-a]pyridine-3-carboxamido)-4-methylphenyl)-1,2,4-oxadiazol-5-yl)azetidine-1-carboxylate], with at most 100 nM.
For `COC(=O)N1CC(c2nc(-c3cc(F)c(C)c(NC(=O)c4cnc5cc(N6CCNCC6)ccn45)c3)no2)C1` [Compound C030, methyl 3-(3-(3-fluoro-4-methyl-5-(7-(piperazin-1-yl)imidazo[1,2-a]pyridine-3-carboxamido)phenyl)-1,2,4-oxadiazol-5-yl)azetidine-1-carboxylate], the IC50 was 100 to 1000 nM.
In the case of `Cc1c(F)cc(-c2noc(C3CN(C(=O)OC4CC4)C3)n2)cc1NC(=O)c1cnc2ccccn12` [Compound C031, cyclopropyl 3-(3-(3-fluoro-5-(imidazo[1,2-a]pyridine-3-carboxamido)-4-methylphenyl)-1,2,4-oxadiazol-5-yl)azetidine-1-carboxylate], the IC50 lay within 1000 to 20000 nM.
`CNC(=O)N1CC(c2nc(-c3cc(F)c(C)c(NC(=O)c4cnc5ccccn45)c3)no2)C1` [Compound C032, N-(3-fluoro-2-methyl-5-(5-(1-(methylcarbamoyl)azetidin-3-yl)-1,2,4-oxadiazol-3-yl)phenyl)imidazo[1,2-a]pyridine-3-carboxamide] displayed an IC50 of 1000 to 20000 nM.
`Cc1c(F)cc(-c2noc(C3CC(F)(F)C3)n2)cc1NC(=O)c1cnc2ccc(N3CCN(C)CC3)cn12` [Compound C033, N-(5-(5-(3,3-difluorocyclobutyl)-1,2,4-oxadiazol-3-yl)-3-fluoro-2-methylphenyl)-6-(4-methylpiperazin-1-yl)imidazo[1,2-a]pyridine-3-carboxamide] showed an IC50 of 100 to 1000 nM.
The compound `COC(=O)N1CC(c2nc(-c3cc(F)c(C)c(NC(=O)c4cnc5cc(C#N)ccn45)c3)no2)C1` [Compound C035, methyl 3-(3-(3-(7-cyanoimidazo[1,2-a]pyridine-3-carboxamido)-5-fluoro-4-methylphenyl)-1,2,4-oxadiazol-5-yl)azetidine-1-carboxylate] gave an IC50 of 1000 to 20000 nM.
Take `COC(=O)N1CC(c2nc(-c3cc(F)c(C)c(NC(=O)c4cnc5ccc(N6CCN(C(C)=O)CC6)cn45)c3)no2)C1` [Compound C036, methyl 3-(3-(3-(6-(4-acetylpiperazin-1-yl)imidazo[1,2-a]pyridine-3-carboxamido)-5-fluoro-4-methylphenyl)-1,2,4-oxadiazol-5-yl)azetidine-1-carboxylate]: the IC50 is at most 100 nM.
`COC(=O)N1CC(c2noc(-c3cc(F)c(C)c(NC(=O)c4cnc5ccccn45)c3)n2)C1` [Compound C037, methyl 3-(5-(3-fluoro-5-(imidazo[1,2-a]pyridine-3-carboxamido)-4-methylphenyl)-1,2,4-oxadiazol-3-yl)azetidine-1-carboxylate]: the IC50 was in the range of 100 to 1000 nM.
For the compound `CC(=O)N1CCN(c2ccc3ncc(C(=O)Nc4cc(-c5noc(C6CC(F)(F)C6)n5)cc(F)c4C)n3c2)CC1` [Compound C038, 6-(4-acetylpiperazin-1-yl)-N-(5-(5-(3,3-difluorocyclobutyl)-1,2,4-oxadiazol-3-yl)-3-fluoro-2-methylphenyl)imidazo[1,2-a]pyridine-3-carboxamide], the IC50 is at most 100 nM.
`COC(=O)N1CC(c2nc(-c3cc(F)c(C)c(NC(=O)c4cnc5ccc(C(N)=O)cn45)c3)no2)C1` [Compound C040, methyl 3-(3-(3-(6-carbamoylimidazo[1,2-a]pyridine-3-carboxamido)-5-fluoro-4-methylphenyl)-1,2,4-oxadiazol-5-yl)azetidine-1-carboxylate] yielded an IC50 of at most 100 nM.
On to `Cc1c(F)cc(-c2noc(C3CN(C(=O)OCCN)C3)n2)cc1NC(=O)c1cnc2ccccn12` [Compound C041, 2-aminoethyl 3-(3-(3-fluoro-5-(imidazo[1,2-a]pyridine-3-carboxamido)-4-methylphenyl)-1,2,4-oxadiazol-5-yl)azetidine-1-carboxylate], for which the IC50 was at most 100 nM.
`COCCOC(=O)N1CC(c2nc(-c3cc(F)c(C)c(NC(=O)c4cnc5ccccn45)c3)no2)C1` [Compound C042, 2-methoxyethyl 3-(3-(3-fluoro-5-(imidazo[1,2-a]pyridine-3-carboxamido)-4-methylphenyl)-1,2,4-oxadiazol-5-yl)azetidine-1-carboxylate]: the IC50 fell in the range of 100 to 1000 nM.
The compound `COC(=O)N1CC(c2nc(-c3cc(F)c(C)c(NC(=O)c4cnc5cc(C(N)=O)ccn45)c3)no2)C1` [Compound C043, methyl 3-(3-(3-(7-carbamoylimidazo[1,2-a]pyridine-3-carboxamido)-5-fluoro-4-methylphenyl)-1,2,4-oxadiazol-5-yl)azetidine-1-carboxylate] returned an IC50 of at most 100 nM.
As for `COC(=O)N1CC(c2nnc(-c3cc(F)c(C)c(NC(=O)c4cnc5ccccn45)c3)o2)C1` [Compound C044, methyl 3-(5-(3-fluoro-5-(imidazo[1,2-a]pyridine-3-carboxamido)-4-methylphenyl)-1,3,4-oxadiazol-2-yl)azetidine-1-carboxylate], the IC50 lay within 1000 to 20000 nM.
As to `COC(=O)N1CC(c2nc(-c3cc(F)c(C)c(NC(=O)c4cnc5ccccn45)c3)co2)C1` [Compound C045, methyl 3-(4-(3-fluoro-5-(imidazo[1,2-a]pyridine-3-carboxamido)-4-methylphenyl)oxazol-2-yl)azetidine-1-carboxylate], the IC50 lay within 100 to 1000 nM.
For `COC(=O)N1CC(c2ncc(-c3cc(F)c(C)c(NC(=O)c4cnc5ccccn45)c3)o2)C1` [Compound C046, methyl 3-(5-(3-fluoro-5-(imidazo[1,2-a]pyridine-3-carboxamido)-4-methylphenyl)oxazol-2-yl)azetidine-1-carboxylate], the IC50 lay in the range of 1000 to 20000 nM.
Turning to `COC(=O)N1CC(c2coc(-c3cc(F)c(C)c(NC(=O)c4cnc5ccccn45)c3)n2)C1` [Compound C047, methyl 3-(2-(3-fluoro-5-(imidazo[1,2-a]pyridine-3-carboxamido)-4-methylphenyl)oxazol-4-yl)azetidine-1-carboxylate], the IC50 fell in the range of 100 to 1000 nM.
`COC(=O)N1CC(c2nnc(-c3cc(F)c(C)c(NC(=O)c4cnc5ccccn45)c3)[nH]2)C1` [Compound C048, methyl 3-(5-(3-fluoro-5-(imidazo[1,2-a]pyridine-3-carboxamido)-4-methylphenyl)-4H-1,2,4-triazol-3-yl)azetidine-1-carboxylate] returned an IC50 of 100 to 1000 nM.
As to `COC(=O)N1CCC[C@@H](c2nc(-c3cc(F)c(C)c(NC(=O)c4cnc5ccccn45)c3)no2)C1` [Compound C049, methyl (R)-3-(3-(3-fluoro-5-(imidazo[1,2-a]pyridine-3-carboxamido)-4-methylphenyl)-1,2,4-oxadiazol-5-yl)piperidine-1-carboxylate], the IC50 lay in the range of 100 to 1000 nM.
For the compound `Cc1c(F)cc(-c2noc([C@@H]3C[C@H]3F)n2)cc1NC(=O)c1cnc2cc(N3CCOCC3)ccn12` [Compound C050, N-(3-fluoro-5-(5-((1S,2R)-2-fluorocyclopropyl)-1,2,4-oxadiazol-3-yl)-2-methylphenyl)-7-morpholinoimidazo[1,2-a]pyridine-3-carboxamide], the IC50 is 100 to 1000 nM.
The compound `COC(=O)N1CC(c2cnc(-c3cc(F)c(C)c(NC(=O)c4cnc5ccccn45)c3)o2)C1` [Compound C051, methyl 3-(2-(3-fluoro-5-(imidazo[1,2-a]pyridine-3-carboxamido)-4-methylphenyl)oxazol-5-yl)azetidine-1-carboxylate] returned an IC50 of 1000 to 20000 nM.
Then `COC(=O)N1CC(c2nc(-c3cc(F)c(C)c(NC(=O)c4cnc5ccccn45)c3F)no2)C1` [Compound C052, methyl 3-(3-(2,5-difluoro-3-(imidazo[1,2-a]pyridine-3-carboxamido)-4-methylphenyl)-1,2,4-oxadiazol-5-yl)azetidine-1-carboxylate], with at most 100 nM.
Compound `COC(=O)N1CC[C@@H](c2nc(-c3cc(F)c(C)c(NC(=O)c4cnc5ccccn45)c3F)no2)C1` [Compound C053, methyl (R)-3-(3-(2,5-difluoro-3-(imidazo[1,2-a]pyridine-3-carboxamido)-4-methylphenyl)-1,2,4-oxadiazol-5-yl)pyrrolidine-1-carboxylate] came in with an IC50 of 1000 to 20000 nM.
`COC(=O)N1CCC[C@@H](c2nc(-c3cc(F)c(C)c(NC(=O)c4cnc5ccccn45)c3F)no2)C1` [Compound C054, methyl (R)-3-(3-(2,5-difluoro-3-(imidazo[1,2-a]pyridine-3-carboxamido)-4-methylphenyl)-1,2,4-oxadiazol-5-yl)piperidine-1-carboxylate] gave an IC50 of 100 to 1000 nM.

As usually defined, the IC50 is the concentration at which inhibition is half-maximal. The low end stands for inhibition by little substance, the high end for a need for much substance.

For the origin of these results see patent US20250313556A1, “CERTAIN CHEMICAL ENTITIES, COMPOSITIONS, AND METHODS” (MRJA THERAPEUTICS, INC., priority 2022, published 2025).
